Data from US20250074891A1 (Anaxis Pharma Pty Ltd., priority 2021, published 2025).

Key:
Settings in all cases: Table 35
MLKL (full length) = MLKL (full length) (Homo sapiens (Human), UniProt Q8NB16); assay: KINOMEscan binding assay, MLKL (full length)
Protocol: (§1) Kinase assays. For most assays, kinase-tagged T7 phage strains were grown in parallel in 24-well blocks in an E. coli host derived from the BL21 strain. E. coli were grown to log-phase and infected with T7 phage from a frozen stock (multiplicity of infection=0.4) and incubated with shaking at 32° C. until lysis (90-150 minutes).
(§2) The Hill Slope was set to −1.

RIP3 = RIP3 (Homo sapiens (Human), UniProt Q9Y572); assay: KINOMEscan binding assay, RIP3
Protocol: as §1, §2

RIP1 = RIP1 (Homo sapiens (Human), UniProt Q13546); assay: KINOMEscan binding assay, RIP1
RIP1, sequence (Q13546 whole entry): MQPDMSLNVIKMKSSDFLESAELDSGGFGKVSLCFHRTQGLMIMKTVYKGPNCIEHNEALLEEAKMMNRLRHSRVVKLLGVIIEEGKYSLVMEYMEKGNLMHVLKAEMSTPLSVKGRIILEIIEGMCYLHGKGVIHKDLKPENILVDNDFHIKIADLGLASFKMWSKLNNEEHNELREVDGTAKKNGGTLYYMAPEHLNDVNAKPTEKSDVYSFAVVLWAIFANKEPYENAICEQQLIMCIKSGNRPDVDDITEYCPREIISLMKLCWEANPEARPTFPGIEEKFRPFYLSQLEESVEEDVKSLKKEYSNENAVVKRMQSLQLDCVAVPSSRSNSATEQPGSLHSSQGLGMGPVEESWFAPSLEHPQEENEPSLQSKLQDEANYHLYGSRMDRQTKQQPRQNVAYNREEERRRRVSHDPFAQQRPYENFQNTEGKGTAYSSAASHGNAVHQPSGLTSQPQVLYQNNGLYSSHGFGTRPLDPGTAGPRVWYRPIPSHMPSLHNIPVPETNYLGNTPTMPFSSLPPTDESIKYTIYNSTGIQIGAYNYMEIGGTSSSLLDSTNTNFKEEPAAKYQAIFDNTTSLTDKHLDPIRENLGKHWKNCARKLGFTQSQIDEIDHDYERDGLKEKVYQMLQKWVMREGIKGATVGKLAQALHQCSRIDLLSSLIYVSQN

MLKL (full length), sequence (Q8NB16 whole entry): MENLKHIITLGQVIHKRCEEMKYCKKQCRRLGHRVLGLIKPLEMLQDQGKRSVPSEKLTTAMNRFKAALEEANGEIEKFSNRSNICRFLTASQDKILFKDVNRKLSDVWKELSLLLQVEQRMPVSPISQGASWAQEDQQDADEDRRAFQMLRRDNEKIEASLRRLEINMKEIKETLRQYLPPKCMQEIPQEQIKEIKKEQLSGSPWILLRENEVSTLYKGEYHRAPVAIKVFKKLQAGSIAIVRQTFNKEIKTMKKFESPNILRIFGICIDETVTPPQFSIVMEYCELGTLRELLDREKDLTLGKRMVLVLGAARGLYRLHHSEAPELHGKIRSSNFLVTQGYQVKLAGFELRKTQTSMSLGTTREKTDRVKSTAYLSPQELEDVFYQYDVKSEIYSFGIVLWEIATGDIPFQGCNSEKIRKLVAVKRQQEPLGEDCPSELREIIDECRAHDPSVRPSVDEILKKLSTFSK
RIP3, sequence (Q9Y572 whole entry): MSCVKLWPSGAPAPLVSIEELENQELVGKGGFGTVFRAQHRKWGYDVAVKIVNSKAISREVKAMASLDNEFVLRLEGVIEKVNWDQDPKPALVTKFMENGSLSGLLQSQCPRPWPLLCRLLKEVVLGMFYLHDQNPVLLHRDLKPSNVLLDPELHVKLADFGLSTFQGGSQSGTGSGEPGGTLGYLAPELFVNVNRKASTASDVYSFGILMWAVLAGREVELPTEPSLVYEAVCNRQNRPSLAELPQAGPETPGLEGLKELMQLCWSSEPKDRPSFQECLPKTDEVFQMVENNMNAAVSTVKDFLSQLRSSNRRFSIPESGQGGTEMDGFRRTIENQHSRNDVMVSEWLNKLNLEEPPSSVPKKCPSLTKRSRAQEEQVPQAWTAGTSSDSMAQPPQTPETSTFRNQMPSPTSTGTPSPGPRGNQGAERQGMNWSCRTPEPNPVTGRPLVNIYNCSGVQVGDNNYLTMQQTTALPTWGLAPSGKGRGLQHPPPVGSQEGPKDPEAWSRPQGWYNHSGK

Compound | Kd (MLKL (full length)) | Kd (RIP3) | Kd (RIP1)
CCC(Oc1cc(-c2n[nH]c(Nc3cnccn3)c2C(N)=O)ccc1NS(=O)(=O)C(F)F)c1ccc(F)cc1 (racemic) [Compound 233, 3-[4-(difluoromethanesulfonamido)-3-[1-(4-fluorophenyl)propoxy]phenyl]-5-[(pyrazin-2-yl)amino]-1H-pyrazole-4-carboxamide] | < 0.01 µM | > 30 µM | > 30 µM
CC(Oc1cc(-c2n[nH]c(Nc3cnccn3)c2C(N)=O)ccc1NS(=O)(=O)C(F)F)c1ncco1 (racemic) [Compound 293, 3-(4-((difluoro-methyl)sulfon-amido)-3-(1-(oxazol-2-yl)ethoxy)phenyl)-5-(pyrazin-2-ylamino)-1H-pyrazole-4-carboxamide] | < 0.01 µM | > 30 µM | > 30 µM
COCC(Oc1cc(-c2n[nH]c(Nc3cc(C)on3)c2C(N)=O)ccc1NS(=O)(=O)C(F)F)c1ccc(F)cc1 (racemic) [Compound 298, 3-(4-((difluoromethyl)sulfonamido)-3-(1-(4-fluorophenyl)-2-methoxyethoxy)phenyl)-5-((5-methylisoxazol-3-yl)amino)-1H-pyrazole-4-carboxamide] | < 0.01 µM | > 30 µM | > 30 µM
CCS(=O)(=O)Nc1ccc(-c2n[nH]c(Nc3cnccn3)c2C(N)=O)cc1OCc1ccc(F)c(F)c1 [Compound 1, 3-(3-((3,4-difluorobenzyl)oxy)-4-(ethylsulfonamido)phenyl)-5-(pyrazin-2-ylamino)-1H-pyrazole-4-carboxamide] | < 0.01 µM | > 30 µM | > 30 µM
CC(C)(C)n1nc(-c2ccc(N)c(OCc3ccc(F)cc3)c2)c(C(N)=O)c1Nc1cccc(C(F)(F)F)n1 [Compound 5, 3-(4-amino-3-((4-fluorobenzyl)oxy)phenyl)-1-(tert-butyl)-5-((6-(trifluoromethyl)pyridin-2-yl)amino)-1H-pyrazole-4-carboxamide] | 0.01 to 1 µM | > 30 µM | > 30 µM
CCS(=O)(=O)Nc1ccc(-c2n[nH]c(Nc3cccc(OC)n3)c2C(N)=O)cc1OCc1ccc(F)cc1 [Compound 11, 3-(4-(ethylsulfonamido)-3-((4-fluorobenzyl)oxy)phenyl) 5-((6-methoxypyridin-2-yl)amino)-1H-pyrazole-4-carboxamide] | < 0.01 µM | > 30 µM | > 30 µM
CCS(=O)(=O)Nc1ccc(-c2n[nH]c(Nc3cnc(OC)cn3)c2C(N)=O)cc1OCc1ccc(F)cc1 [Compound 14, 3-(4-(ethylsulfonamido)-3-((4-fluorobenzyl)oxy)phenyl) 5-((5-methoxypyrazin-2-yl)amino)-1H-pyrazole-4-carboxamide] | < 0.01 µM | > 30 µM | > 30 µM
CCS(=O)(=O)Nc1ccc(-c2n[nH]c(Nc3cncc(OC)n3)c2C(N)=O)cc1OCc1ccc(F)cc1 [Compound 15, 3-(4-(ethylsulfonamido)-3-((4-fluorobenzyl)oxy)phenyl) 5-((6-methoxypyrazin-2-yl)amino)-1H-pyrazole-4-carboxamide] | < 0.01 µM | > 30 µM | > 30 µM
CCS(=O)(=O)Nc1ccc(-c2n[nH]c(Nc3cncc(C(F)(F)F)n3)c2C(N)=O)cc1OCc1ccc(F)cc1 [Compound 17, 3-(4-(ethylsulfonamido)-3-((4-fluorobenzyl)oxy)phenyl)5-((6-(trifluoromethyl)pyrazin-2-yl)amino)-1H-pyrazole-4-carboxamide] | < 0.01 µM | > 30 µM | > 30 µM
CCS(=O)(=O)Nc1ccc(-c2n[nH]c(Nc3ccccn3)c2C(N)=O)cc1OCc1ccccc1 [Compound 20, 3-(3-(benzyloxy)-4-(ethylsulfon-amido)phenyl)-5-(pyridin-2-ylamino)-1H-pyrazole-4-carboxamide] | < 0.01 µM | > 30 µM | > 30 µM
CCS(=O)(=O)Nc1ccc(-c2n[nH]c(Nc3cnccn3)c2C(N)=O)c(OCc2ccc(F)cc2)c1 [Compound 21, 3-(4-(ethylsulfonamido)-2-((4-fluorobenzyl)oxy)phenyl)-5-(pyrazin-2-ylamino)-1H-pyrazole-4-carboxamide] | < 0.01 µM | > 30 µM | > 30 µM
NC(=O)c1c(-c2ccc(NS(=O)(=O)CCC(F)F)cc2)n[nH]c1Nc1cnccn1 [Compound 23, 3-(4-((3,3-difluoropropyl)sulfonamido)phenyl)-5-(pyrazin-2-ylamino)-1H-pyrazole-4-carboxamide] | < 0.01 µM | > 30 µM | > 30 µM
CCS(=O)(=O)Nc1ccc(-c2n[nH]c(Nc3cnccn3)c2C(N)=O)cc1OCCc1ccc(F)cc1 [Compound 24] | < 0.01 µM | > 30 µM | > 30 µM
CCS(=O)(=O)Nc1ccc(-c2n[nH]c(Nc3cnccn3)c2C(N)=O)cc1OCc1ccccc1 [Compound 25, 3-(3-(benzyloxy)-4-(ethylsulfonamido)phenyl)-5-(pyrazin-2-ylamino)-1H-pyrazole-4-carboxamide] | < 0.01 µM | > 30 µM | > 30 µM
CCS(=O)(=O)Nc1ccc(-c2n[nH]c(Nc3cnccn3)c2C(N)=O)cc1OCc1cccc(F)c1 [Compound 26, 3-(4-(ethylsulfonamido)-3-((3-fluorobenzyl)oxy)phenyl)-5-(pyrazin-2-ylamino)-1H-pyrazole-4-carboxamide] | < 0.01 µM | > 30 µM | > 30 µM
CCS(=O)(=O)Nc1ccc(-c2n[nH]c(Nc3ccccn3)c2C(N)=O)cc1OCc1ccncc1 [Compound 27, 3-(4-(ethylsulfon-amido)-3-(pyridin-4-ylmethoxy)phenyl)-5-(pyridin-2-ylamino)-1H-pyrazole-4-carboxamide] | < 0.01 µM | > 30 µM | > 30 µM
CCS(=O)(=O)Nc1ccc(-c2n[nH]c(Nc3cnccn3)c2C(N)=O)cc1OCc1ccncc1 [Compound 28, 3-(4-(ethylsulfonamido)-3-(226yridine-4-ylmethoxy)phenyl)-5-(pyrazin-2-ylamino)-1H-pyrazole-4-carboxamide] | < 0.01 µM | > 30 µM | > 30 µM
N#CCS(=O)(=O)Nc1ccc(-c2n[nH]c(Nc3cccc(C(F)(F)F)n3)c2C(N)=O)cc1 [Compound 29, 3-(4-((cyanomethyl)sulfonamido)phenyl)-5-((6-(trifluoromethyl)pyridin-2-yl)amino)-1H-pyrazole-4-carboxamide] | < 0.01 µM | > 30 µM | > 30 µM
CCS(=O)(=O)Nc1ccc(-c2n[nH]c(Nc3ccccn3)c2C(N)=O)cc1OCc1ccc(F)cc1 [Compound 30, 3-(4-(ethylsulfon-amido)-3-((4-fluorobenzyl)oxy)phenyl)-5-(pyridin-2-ylamino)-1H-pyrazole-4-carboxamide] | < 0.01 µM | > 30 µM | > 30 µM
CCS(=O)(=O)Nc1ccc(-c2n[nH]c(Nc3ccccn3)c2C(N)=O)cc1OCc1cccnc1 [Compound 31, 3-(4-(ethylsulfon-amido)-3-(pyridin-3-ylmethoxy)phenyl)-5-(pyridin-2-ylamino)-1H-pyrazole-4-carboxamide] | < 0.01 µM | > 30 µM | > 30 µM
CCS(=O)(=O)Nc1ccc(-c2n[nH]c(Nc3cnccn3)c2C(N)=O)cc1OCc1cccnc1 [Compound 32, 3-(4-(ethylsulfonamido)-3-(226yridine-3-ylmethoxy)phenyl)-5-(pyrazin-2-ylamino)-1H-pyrazole-4-carboxamide] | < 0.01 µM | > 30 µM | > 30 µM
CCS(=O)(=O)Nc1ccc(-c2n[nH]c(Nc3cnc(C(C)C)cn3)c2C(N)=O)cc1OCc1ccc(F)cc1 [Compound 34, 3-(4-(ethylsulfonamido)-3-((4-fluorobenzyl)oxy)phenyl) 5-((5-isopropylpyrazin-2-yl)amino)-1H-pyrazole-4-carboxamide] | < 0.01 µM | > 30 µM | > 30 µM
CCS(=O)(=O)Nc1ccc(-c2n[nH]c(Nc3ccccn3)c2C(N)=O)cc1OCc1ccc(Cl)cc1 [Compound 39, 3-(3-((4-chlorobenzyl)oxy)-4-(ethylsulfon-amido)phenyl)-5-(pyridin-2-ylamino)-1H-pyrazole-4-carboxamide] | < 0.01 µM | > 30 µM | 
CCS(=O)(=O)Nc1ccc(-c2n[nH]c(Nc3cnccn3)c2C(N)=O)cc1OCC1CCCC1 [Compound 40, 3-(3-(cyclopentyl-methoxy)-4-(ethylsulfonamido)phenyl)-5-(pyrazin-2-ylamino)-1H-pyrazole-4-carboxamide] | < 0.01 µM | > 30 µM | > 30 µM
CCS(=O)(=O)Nc1ccc(-c2n[nH]c(Nc3cnccn3)c2C(N)=O)cc1OCc1cccc(Cl)c1 [Compound 41, 3-(3-((3-chlorobenzyl)oxy)-4-(ethylsulfonamido)phenyl)-5-(pyrazin-2-ylamino)-1H-pyrazole-4-carboxamide] | < 0.01 µM | > 30 µM | > 30 µM
CCS(=O)(=O)Nc1ccc(-c2n[nH]c(Nc3cnccn3)c2C(N)=O)cc1OCc1ccc(Cl)cc1 [Compound 42, 3-(3-((4-chlorobenzyl)oxy)-4-(ethylsulfonamido)phenyl)-5-(pyrazin-2-ylamino)-1H-pyrazole-4-carboxamide] | < 0.01 µM | > 30 µM | > 30 µM
CCS(=O)(=O)Nc1ccc(-c2n[nH]c(Nc3cnccn3)c2C(N)=O)cc1OCC1CCCCC1 [Compound 47, 3-(3-(cyclohexyl-methoxy)-4-(ethylsulfonamido)phenyl)-5-(pyrazin-2-ylamino)-1H-pyrazole-4-carboxamide] | < 0.01 µM | > 30 µM | > 30 µM
NC(=O)c1c(-c2ccc(NS(=O)(=O)C(F)F)cc2)n[nH]c1Nc1ccccn1 [Compound 48, 3-(4-((difluoromethyl)sulfonamido)phenyl)-5-(pyridin-2-ylamino)-1H-pyrazole-4-carboxamide] | < 0.01 µM | > 30 µM | > 30 µM
